One data set is described as follows: Acute toxicity, oral. As to conditions: mouse, in vivo, ddY male mice, suspended in 0.5% carboxymethyl cellulose, 7 days.
The subject of a further data set is Mongrel dogs. The data set can be described thus: Coronary vasodilating activity and hypotensive activity in anesthetized dogs. As to conditions: Canis lupus familiaris, iv; for ED15: read-out: Mean systemic blood pressure lowering activity MBP-DD15; for ED75: dose which increases coronary blood flow by 75%, anesthetized mongrel dogs, injected into femoral vein, 0.03 to 0.3 mg/kg, read-out: Coronary blood flow increasing activity CBF-ID75. In kind it is in vivo, dog. As to the method:
Coronary vasodilating activity was examined by measuring the amount of coronary blood flow as an index. Mongrel dogs weighing 10 to 19 kg were anesthetized by intravenously injecting sodium pentobarbital (30 mg/kg) and thoracotomized at the 5th left intercostal space under artificial ventilation. After incision of the pericardiac membrane, a flow probe was placed at the circumflex banch of the left coronary artery and led to an electromagnetic flow meter (MFV-2100 made by Nihon Kohden Co., Ltd.). The systemic blood pressure of the animals was measured by a pressure transducer (MPU-0.5 made by Nihon Kohden Co., Ltd.) connected to the cannulated left femoral artery. The coronary blood flow and the systemic blood pressure were recorded on a polygraph (RM-85 made by Nihon Kohden Co., Ltd.). Each of the test compounds was dissolved in ethanol/saline solution (1/1, V/V) and injected into the femoral vein.
Each of the test compounds was administered in a dose of 0.03 to 0.3 mg/kg, and doses which increase the coronary blood flow by 75% (CBF-ID75) and decrease the mean systemic blood pressure by 15% (MDP-DD15) were calculated from the regression lines.

Data set [1] concerns the target T1, taenia preparation isolated from caecum (Cavia porcellus).
T1 construct: The taenia preparation in a length of about 2 cm was isolated from caecum; from tissue; host or cells: guinea pig taenia caeci (isolated smooth muscle strip)
The data set can be described thus: Calcium antagonistic activity (isolated taenia preparation from caecum, Ca2+ concentration-response in K+-rich solution). In kind it is cell-based. As to conditions: guinea pig taenia caeci; Ca2+-free, K+-rich Ringer-Lock solution, 30±1° C.; CaCl2 cumulatively added; read-out: Calcium antagonistic activity (pA2 values, mean ± standard error) (converted). How it is done:
Male guinea pigs, weighing 405-500 g, were stunned and bled. The taenia preparation in a length of about 2 cm was isolated from caecum and suspended in an organ bath filled with Ca^2+ -free Ringer-Lock solution (composition, mM: NaCl 154, KCl 5.6, NaHCO3 2.3, glucose 5.5). The bathing solution was maintained at 30±1° C. and bubbled with air. The contractile response was recorded using an isotonic transducer (TD-112S made by Nihon Kohden Co., Ltd.) under a load of 0.5 g.
After sufficient incubation to remove Ca^2+, the bathing solution was replaced by Ca^2+ -free, K^+ -rich Ringer-Lock solution (composition, mM: NaCl 59.6, KCl 100, NaHCO3 2.3, glucose 5.5). An aqueous solution of CaCl2 ([…]) was cumulatively added to the bathing solution every 10 minutes, and a concentration-response curve for Ca^2+ was obtained. After washing out Ca^2+ the same procedure as above was carried out in the presence of each of the test compounds, and the pA2 value of the calcium antagonistic activity was calculated from the difference between the concentration-response curves obtained in the absence and presence of the test compound.
Each of the test compounds was dissolved in 5% ethanol and added to the bathing solution (the final concentration of ethanol was 0.05%).

The text below walks through data of patent publication US4607031A, “Novel ethyl benzylphosphinate derivatives, process for production thereof, and their use as calcium antagonist” (priority 1984, dated 1986).

SMILES strings stand for the structures.

A word on the LD50: it is the dose at which mortality reaches 50%. High values mean lower toxicity, low ones greater toxicity.

T1 sequence (O35505 whole entry): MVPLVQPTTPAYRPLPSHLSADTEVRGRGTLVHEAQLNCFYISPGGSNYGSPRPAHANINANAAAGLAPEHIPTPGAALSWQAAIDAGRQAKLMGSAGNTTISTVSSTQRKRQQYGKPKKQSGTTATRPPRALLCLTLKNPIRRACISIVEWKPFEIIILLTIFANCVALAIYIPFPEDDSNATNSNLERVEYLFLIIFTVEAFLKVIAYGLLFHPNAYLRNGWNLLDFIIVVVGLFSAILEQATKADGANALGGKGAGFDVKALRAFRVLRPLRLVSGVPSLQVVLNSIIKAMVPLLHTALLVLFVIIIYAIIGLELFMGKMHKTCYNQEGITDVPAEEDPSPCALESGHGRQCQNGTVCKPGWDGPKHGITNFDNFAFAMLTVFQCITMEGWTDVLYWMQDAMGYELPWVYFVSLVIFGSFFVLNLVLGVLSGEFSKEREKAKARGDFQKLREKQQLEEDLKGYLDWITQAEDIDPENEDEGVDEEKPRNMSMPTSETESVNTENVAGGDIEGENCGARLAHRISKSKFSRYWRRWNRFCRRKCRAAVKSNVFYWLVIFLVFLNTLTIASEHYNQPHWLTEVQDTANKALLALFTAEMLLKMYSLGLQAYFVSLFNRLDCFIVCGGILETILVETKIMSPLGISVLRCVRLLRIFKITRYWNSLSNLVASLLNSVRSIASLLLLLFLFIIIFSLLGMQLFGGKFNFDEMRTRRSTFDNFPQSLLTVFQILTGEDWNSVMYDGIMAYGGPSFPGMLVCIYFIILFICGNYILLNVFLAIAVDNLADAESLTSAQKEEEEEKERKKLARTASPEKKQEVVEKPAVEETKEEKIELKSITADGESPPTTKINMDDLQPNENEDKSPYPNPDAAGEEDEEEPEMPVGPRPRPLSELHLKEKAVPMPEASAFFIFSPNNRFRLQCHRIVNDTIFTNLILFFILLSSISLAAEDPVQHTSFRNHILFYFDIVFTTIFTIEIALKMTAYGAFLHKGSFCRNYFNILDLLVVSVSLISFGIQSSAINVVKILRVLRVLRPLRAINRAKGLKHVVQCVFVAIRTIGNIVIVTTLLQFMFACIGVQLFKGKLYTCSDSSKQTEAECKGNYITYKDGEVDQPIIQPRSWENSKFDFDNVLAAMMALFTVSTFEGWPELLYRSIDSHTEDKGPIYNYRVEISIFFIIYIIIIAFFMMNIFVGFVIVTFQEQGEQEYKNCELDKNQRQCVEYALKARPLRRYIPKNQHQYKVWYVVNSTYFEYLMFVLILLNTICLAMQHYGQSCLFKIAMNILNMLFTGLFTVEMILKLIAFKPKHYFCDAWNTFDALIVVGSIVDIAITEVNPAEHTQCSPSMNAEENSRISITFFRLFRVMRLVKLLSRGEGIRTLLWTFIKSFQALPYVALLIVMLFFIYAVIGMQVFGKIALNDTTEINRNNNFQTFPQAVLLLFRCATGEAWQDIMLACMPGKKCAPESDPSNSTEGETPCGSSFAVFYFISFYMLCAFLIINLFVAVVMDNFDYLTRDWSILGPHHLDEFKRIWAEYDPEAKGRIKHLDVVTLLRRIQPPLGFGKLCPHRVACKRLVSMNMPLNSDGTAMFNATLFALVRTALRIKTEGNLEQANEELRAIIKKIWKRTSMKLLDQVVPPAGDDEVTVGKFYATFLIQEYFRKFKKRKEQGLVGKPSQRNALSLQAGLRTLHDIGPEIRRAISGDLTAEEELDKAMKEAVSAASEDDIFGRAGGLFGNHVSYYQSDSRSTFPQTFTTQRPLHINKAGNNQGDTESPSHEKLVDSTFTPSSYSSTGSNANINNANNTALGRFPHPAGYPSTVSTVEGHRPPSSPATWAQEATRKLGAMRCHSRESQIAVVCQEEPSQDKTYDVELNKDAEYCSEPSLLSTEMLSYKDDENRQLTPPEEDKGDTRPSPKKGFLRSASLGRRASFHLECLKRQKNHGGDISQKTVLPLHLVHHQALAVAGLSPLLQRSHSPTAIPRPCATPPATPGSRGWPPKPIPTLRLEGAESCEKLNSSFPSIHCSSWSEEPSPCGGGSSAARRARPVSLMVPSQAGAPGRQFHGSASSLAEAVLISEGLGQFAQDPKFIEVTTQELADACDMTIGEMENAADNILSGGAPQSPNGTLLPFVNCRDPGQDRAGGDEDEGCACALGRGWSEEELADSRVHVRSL

`CCOP(=O)(Cc1ccc(-c2nc3ccccc3s2)cc1)N1CCCCC1=O` (centres unmarked) [Compound 101, Ethyl 4-(benzothiazol-2-yl)benzyl-(2-oxopiperidino)phosphinate]: the LD50 at 168 h in “Acute toxicity, oral” is greater than 1000 mg/kg. Also, in the data set on Mongrel dogs, the ED15 was 0.0582 mg/kg and the ED75 turned out to be 0.06 mg/kg. Further, in data set [1], the Kb is 0.0355 µM.
As for `CCOP(=O)(Cc1ccc(-c2nc3ccccc3s2)cc1)N1CCCC1=O` (centres unmarked) [Compound 100, Ethyl 4-(benzothiazol-2-yl)benzyl-(2-oxopyrrolidino)phosphinate], the LD50 at 168 h in the data set “Acute toxicity, oral” was greater than 1000 mg/kg. Further, in the data set on Mongrel dogs, the ED15 was 0.0387 mg/kg and the ED75 turned out to be 0.044 mg/kg. For the same molecule, the Kb in data set [1] was 0.0295 µM.
On to `CCOP(=O)(Cc1ccc(-c2nc3ccccc3s2)cc1)N1CCCCCC1=O` (centres unmarked) [Compound 102, Ethyl 4-(benzothiazol-2-yl)benzyl-(2-oxohomopiperidino)phosphinate], for which the LD50 at 168 h in the data set “Acute toxicity, oral” is greater than 1000 mg/kg. Further, in the data set with Mongrel dogs, the ED15 worked out at 0.054 mg/kg and the ED75 was 0.0573 mg/kg. Moreover, the Kb in data set [1] was 0.0347 µM.
The corresponding values for `CCOP(=O)(Cc1ccc(-c2nc3cc(F)ccc3s2)cc1)N1CCOC1=O` (centres unmarked) [Compound 109, Ethyl 4-(5-fluorobenzothiazol-2-yl)benzyl(2-oxo-1,3-oxazolidino)phosphinate] are greater than 1000 mg/kg, 0.0748 mg/kg, 0.0615 mg/kg and 0.0204 µM.
In turn, `CCOP(=O)(Cc1ccc(-c2nc3cc(F)ccc3s2)cc1)N1CCCCCC1=O` (centres unmarked) [Compound 105, Ethyl 4-(5-fluorobenzothiazol-2-yl)benzyl(2-oxohomopiperidino)phosphinate] yielded an LD50 at 168 h in the data set “Acute toxicity, oral” greater than 1000 mg/kg. In the data set on Mongrel dogs, the ED15 was 0.0712 mg/kg and the ED75 is 0.0583 mg/kg. In data set [1], the Kb was 0.0186 µM.
The like results for `CCOP(=O)(Cc1ccc(-c2nc3cc(F)ccc3s2)cc1)N1CCCCC1=O` (centres unmarked) [Compound 104, Ethyl 4-(5-fluorobenzothiazol-2-yl)benzyl(2-oxopiperidino)phosphinate] were, in that order, greater than 1000 mg/kg, 0.0629 mg/kg, 0.0647 mg/kg and 0.0209 µM.
With `CCOP(=O)(Cc1ccc(-c2nc3ccccc3s2)cc1)OCC` [Compound A, diethyl 4-(benzothiazol-2-yl)benzylphosphonate, reference compound], in the data set “Acute toxicity, oral”, the LD50 at 168 h is greater than 1000 mg/kg. Further, in the data set on Mongrel dogs, the ED15 stood at 0.158 mg/kg and the ED75 amounted to 0.116 mg/kg. Also, in data set [1], the Kb was 0.0617 µM.
With `CCOP(=O)(Cc1ccc(-c2nc3cc(F)ccc3s2)cc1)N1CCCC1=O` (centres unmarked) [Compound 103, Ethyl 4-(5-fluorobenzothiazol-2-yl)benzyl(2-oxopyrrolidino)phosphinate], the LD50 at 168 h in the data set “Acute toxicity, oral” was greater than 1000 mg/kg. Further, in the data set on Mongrel dogs, the ED15 amounted to 0.0901 mg/kg and the ED75 is 0.0644 mg/kg. Moreover, the Kb in data set [1] is 0.0186 µM.
